Patent US20150147350A1, “Method Of Treating Cancer With MEGEA3 Immunotherapeutic With BRAF Inhibitor And/Or MEK Inhibitor” (GlaxoSmithKline LLC, priority 2011, published 2015)

Test system: systemic immunity
Assay: Peripheral blood immune-monitoring in cancer patients treated with BRAF inhibitor
Description: 13 patients with tumors carrying a BRAF mutation who underwent treatment with GSK2118436 (the compound of formula (I)), a V600 mutant BRAF specific inhibitor were studied to assess effects of mutant BRAF inhibition on systemic immunity. Peripheral blood immune-monitoring was carried out before and following one or two 28-day cycles of treatment.

**Q.** How did the “impact on most immune parameters tested (serum cytokine levels, peripheral blood cell counts, leukocyte subset frequencies, memory CD4+ and CD8+ T-cell recall responses)” value (13 patients, before and following one or two 28-day cycles of treatment) turn out when CC(C)(C)c1nc(-c2cccc(NS(=O)(=O)c3c(F)cccc3F)c2F)c(-c2ccnc(N)n2)s1 [GSK2118436, N-{3-[5-(2-Amino-4-pyrimidinyl)-2-(1,1-dimethylethyl)-1,3-thiazol-4-yl]-2-fluorophenyl}-2,6-difluorobenzenesulfonamide] was run?
**A.** Its value is “no detectable impact”.

**Q.** What about the “serum TNF-α over the course of treatment” value (13 patients, one or two 28-day cycles of treatment) of the same molecule?
**A.** The value was “slight increase”.

**Q.** And the “negative impact on existing systemic immunity or the de novo generation of tumor-specific T cells” value (patients, conclusion of the study)?
**A.** The value was “no detectable negative impact”.

**Q.** What about the “circulating tumor antigen-specific CD8+ T cells” value (three of the four human leukocyte antigen-A2-positive patients, following BRAF(V600) inhibitor therapy) of the same molecule?
**A.** The value was “modest increase”.
